Test results from patent US11185078B2 (priority 2016, dated 2021).
Where a SMILES comes first, the peptide text is derived from it. Bridges are numbered along the chain shown (N, C = ends). The star is where a group is joined. ξ: configuration not given here. Pentadecanoyl(3ξ-OH,15-Gua) = N=C(N)NCCCCCCCCCCCCC(O)CC(=O)*

What was measured:
Type in all cases: in vivo
[1] = test system: Phytophthora infestans (PHYTIN); conditions: for % efficacy (% fungal attack) PHYTIN: 360 ppm, in planta
[2] = test system: Fusarium graminearum (GIBBZE); conditions: 360 ppm
[3] = test system: Septoria tritici (SEPTTR); conditions: 360 ppm, protective application

SMILES | % efficacy (% fungal attack) PHYTIN [1] [%] | % efficacy (% fungal attack) GIBBZE ([2]; in planta) [%] | % efficacy (% fungal attack), head blight on wheat caused by Fusarium graminearum ([2]; protective application) [%] | % efficacy (% fungal attack), head blight on wheat caused by Septoria tritici [3] [%] | % efficacy (% fungal attack), late blight on tomato caused by Phytophthora infestans ([1]; 7.2 ppm, protective application) [%]
CCC(C)C1NC(=O)C(NC(=O)CC(O)CCCCCCCCCCCCNC(=N)N)C(C)OC(=O)C(C)NC(=O)C(CC(N)=O)NC(=O)C(C(C)O)NC(=O)C(Cc2ccc(O)cc2)NC1=O (stereo not drawn) [Compound 1A, fusaricidin 1A] ({Pentadecanoyl(3ξ-OH,15-Gua)}-TIYTNA; ester 1-C; configuration not given here) | 100 | 49 | 49 |  | 
CCC(C)C1NC(=O)C(NC(=O)CC(O)CCCCCCCCCCCCNC(=N)N)C(C)OC(=O)C(C)NC(=O)C(CCC(N)=O)NC(=O)C(C(C)O)NC(=O)C(Cc2ccc(O)cc2)NC1=O (stereo not drawn) [Compound 1B, fusaricidin 1B] ({Pentadecanoyl(3ξ-OH,15-Gua)}-TIYTQA; ester 1-C; configuration not given here) | 100 |  |  | 80 | 44
